Assay results as given in BigSolDB 2.1.

Clc1ccccc1C(c1ccccc1)(c1ccccc1)n1ccnc1
solubility (mole fraction)
Settings	293.15 K	298.15 K	303.15 K	308.15 K	313.15 K
in n-hexane	0.000222	0.000267	0.000319	0.000383	0.000455
in n-octanol	0.0204	0.0249	0.0304	0.0372	0.045
